From PubChem BioAssay (NCI)
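A five-concentration, 48-hour dose response in 96-well plates underlies each endpoint, interpolated linearly between surrounding concentrations. The concentration for 50% growth inhibition is given as GI50. TGI marks complete inhibition of growth.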

Legend:
Assay in all cases: DTP human tumour cell line panel, 48 h
[1] = tested on: SK-MEL-2 melanoma
[2] = tested on: UACC-62 melanoma
[3] = tested on: BT-549 breast
[4] = tested on: SR leukemia
[5] = tested on: MOLT-4 leukemia
[6] = tested on: HCC-2998 colon
[7] = tested on: DU-145 prostate
[8] = tested on: CCRF-CEM leukemia
[9] = tested on: COLO 205 colon
[10] = tested on: HCT-116 colon
[11] = tested on: HCT-15 colon
[12] = tested on: SN12C renal
[13] = tested on: NCI-H522 lung
[14] = tested on: HOP-62 NSCLC
[15] = tested on: HS 578T breast
[16] = tested on: NCI-H226 lung
[17] = tested on: MDA-MB-435
[18] = tested on: MALME-3M melanoma
[19] = tested on: SK-MEL-28 melanoma
[20] = tested on: ACHN renal
[21] = tested on: SW-620 colon
[22] = tested on: HL-60(TB) leukemia
[23] = tested on: NCI-H23 lung
[24] = tested on: U251 CNS
[25] = tested on: UACC-257 melanoma
[26] = tested on: SNB-19 CNS
[27] = tested on: OVCAR-5 ovarian
[28] = tested on: NCI-H460 lung
[29] = tested on: OVCAR-8 ovarian
[30] = tested on: IGROV1 ovarian
[31] = tested on: SF-295 CNS
[32] = tested on: M14 melanoma
[33] = tested on: SF-539 CNS
[34] = tested on: LOX IMVI melanoma
[35] = tested on: HOP-92 NSCLC
[36] = tested on: RXF 393 renal
[37] = tested on: CAKI-1 renal
[38] = tested on: SNB-75 CNS
[39] = tested on: OVCAR-4 ovarian
[40] = tested on: T-47D breast
[41] = tested on: KM12 colon
[42] = tested on: OVCAR-3 ovarian
[43] = tested on: UO-31 renal
[44] = tested on: HT29 colon
[45] = tested on: TK-10 renal
[46] = tested on: PC-3 prostate
[47] = tested on: SF-268 CNS
[48] = tested on: NCI/ADR-RES ovarian
[49] = tested on: MCF7 breast
[50] = tested on: K-562 leukemia
[51] = tested on: 786-0 renal
[52] = tested on: A549 NSCLC
[53] = tested on: EKVX NSCLC
[54] = tested on: A498 renal
[55] = tested on: MDA-MB-231 breast
[56] = tested on: RPMI-8226 leukemia
[57] = tested on: SK-OV-3 ovarian
[58] = tested on: SK-MEL-5 melanoma

## COc1cc(/C=N/O)nc(-c2ccccn2)c1
[1]
  GI50: 1860 nM
  TGI: > 100000 nM
[2]
  GI50: 325 nM
  TGI: 2700 nM
[3]
  GI50: 803 nM
  TGI: > 100000 nM
[4]
  GI50: 284 nM
  TGI: 22200 nM
[5]
  GI50: 281 nM
  TGI: 25100 nM
[6]
  GI50: 341 nM
  TGI: > 100000 nM
[7]
  GI50: 400 nM
  TGI: > 75300 nM
[8]
  GI50: 207 nM
  TGI: > 33200 nM
[9]
  GI50: 305 nM
  TGI: > 100000 nM
[10]
  GI50: 351 nM
  TGI: > 100000 nM
[11]
  GI50: 197 nM
  TGI: > 100000 nM
[12]
  GI50: 434 nM
  TGI: > 44700 nM
[13]
  GI50: 565 nM
  TGI: > 100000 nM
[14]
  GI50: 358 nM
  TGI: > 69700 nM
[15]
  GI50: 3760 nM
  TGI: > 100000 nM
[16]
  GI50: 325 nM
  TGI: 5930 nM
[17]
  GI50: 492 nM
  TGI: > 100000 nM
[18]
  GI50: 431 nM
  TGI: 12200 nM
[19]
  GI50: 476 nM
  TGI: > 100000 nM
[20]
  GI50: 241 nM
  TGI: 12600 nM
[21]
  GI50: 415 nM
  TGI: > 100000 nM
[22]
  GI50: 271 nM
  TGI: 2810 nM
[23]
  TGI: > 100000 nM
[24]
  GI50: 374 nM
  TGI: > 100000 nM
[25]
  GI50: 679 nM
  TGI: 9430 nM
[26]
  GI50: 558 nM
  TGI: > 100000 nM
[27]
  GI50: 637 nM
  TGI: > 100000 nM
[28]
  GI50: 304 nM
  TGI: 12900 nM
[29]
  GI50: 348 nM
  TGI: 22800 nM
[30]
  GI50: 349 nM
  TGI: 24100 nM
[31]
  TGI: > 35500 nM
[32]
  TGI: 4980 nM
[33]
  GI50: 386 nM
  TGI: 10400 nM
[34]
  GI50: 271 nM
  TGI: 10800 nM
[35]
  GI50: 551 nM
  TGI: > 100000 nM
[36]
  GI50: 723 nM
  TGI: 14800 nM
[37]
  TGI: 8970 nM
[38]
  GI50: 500 nM
[39]
  GI50: 255 nM
  TGI: > 100000 nM
[40]
  GI50: 465 nM
  TGI: > 100000 nM
[41]
  GI50: 385 nM
  TGI: > 100000 nM
[42]
  GI50: 324 nM
  TGI: > 100000 nM
[43]
  GI50: 183 nM
  TGI: 6820 nM
[44]
  GI50: 454 nM
  TGI: > 100000 nM
[45]
  GI50: 325 nM
  TGI: > 100000 nM
[46]
  GI50: 437 nM
  TGI: > 100000 nM
[47]
  GI50: 357 nM
  TGI: 68200 nM
[48]
  GI50: 294 nM
  TGI: 10900 nM
[49]
  GI50: 347 nM
  TGI: > 100000 nM
[50]
  TGI: > 100000 nM
[51]
  GI50: 465 nM
  TGI: 27500 nM
[52]
  TGI: > 100000 nM
[53]
  GI50: 342 nM
  TGI: > 100000 nM
[54]
  GI50: 717 nM
  TGI: 19400 nM
[55]
  GI50: 541 nM
  TGI: > 100000 nM
[56]
  TGI: > 100000 nM
[57]
  TGI: > 100000 nM
[58]
  TGI: 1310 nM
